Source: patent USRE43802E1, “α- and β-amino acid hydroxyethylamino sulfonamides useful as retroviral protease inhibitors” (G.D. Searle LLC, priority 1992, dated 2012)
Like-named read-outs stand apart in the source and are kept apart here.

Columns and labels:
CEM cells = experiment: Intrinsic toxicity of test compound in uninfected CEM cells (MTT); format: cell-based; settings: Table 21
Description: Methods, 20, 309-321 (1988).

HIV protease = molecular target: T1, HIV protease (Human immunodeficiency virus type 1 group M subtype B, UniProt P04585); experiment: HIV protease enzyme assay (fluorescence, substrate 2-Ile-Nle-Phe(p-NO2)-Gln-ArgNH2); format: biochemical; settings: for IC50: HIV protease enzyme assay
T1 construct: HIV protease is diluted in the assay buffer to a final enzyme concentration of 12.3 nanomolar, based on a molecular weight of 10,780
Experimental: The enzyme method is described below. […] The positive control is MVT-101 (Miller, M. et al, Science, 246, 1149 (1989)] The assay conditions are as follows:
Assay buffer: 20 mM sodium phosphate, pH 6.4 20% glycerol 1 mM EDTA 1 mM DTT 0.1% CHAPS
The above described substrate is dissolved in DMSO, then diluted 10 fold in assay buffer. Final substrate concentration in the assay is 80 μM.
The final concentration of DMSO is 14% and the final concentration of glycerol is 18%. The test compound is dissolved in DMSO and diluted in DMSO to 10× the test concentration; 10 μl of the enzyme preparation is added, the materials mixed and then the mixture is incubated at ambient temperature for 15 minutes. The enzyme reaction is initiated by the addition of 40 μl of substrate. The increase in fluorescence is monitored at 4 time points (0, 8, 16 and 24 minutes) at ambient temperature. Each assay is carried out in duplicate wells.

HIV-1 = experiment: microbe, parasite or virus in culture; settings: Human immunodeficiency virus 1, CCRF-CEM, 168 h
Experimental: Assays were performed in 96-well tissue culture plates. CEM cells, a CD4^+ cell line, were grown in RPMI-1640 medium (Gibco) supplemented with a 10% fetal calf serum and were then treated with polybrene (2 μg/ml). An 80 μl volume of medium containing 1×10^4 cells was dispensed into each well of the tissue culture plate. To each well was added a 100 μl volume of test compound dissolved in tissue culture medium (or medium without test compound as a control) to achieve the desired final concentration and the cells were incubated at 37° C. for 1 hour. […] Likewise, the intrinsic toxicity of the test compound was determined by adding medium without virus to several wells containing test compound. […]
Following the addition of virus, cells were incubated at 37° C. in a humidified, 5% CO2 atmosphere for 7 days. […] The absorbance at 590 nm was determined for each sample using a Molecular Devices microplate reader. Absorbance values for each set of wells is compared to assess viral control infection, uninfected control cell response as well as test compound by cytotoxicity and antiviral efficacy.

[1] = Table 19B, read-out: IC50 (uM) or % inhib: IC50
[2] = Table 20, read-out: IC50 (uM) or % inhibition: IC50

COc1ccc(S(=O)(=O)N(CC(C)C)C[C@@H](O)[C@H](Cc2ccccc2)NC(=O)c2ccccc2Cl)cc1 [Example 30]
TD50 (nM) (CEM cells): 154,000 nM

CNC(=O)C[C@H](NC(=O)c1ccc2ccccc2n1)C(=O)N[C@@H](Cc1ccccc1)[C@H](O)CN(CCC(C)C)S(=O)(=O)c1ccccc1 [Entry 7]
IC50 (HIV protease; IC50 (nM), Table 21): 3 nM | EC50 (HIV-1): 25 nM

COc1ccc(S(=O)(=O)N(CC(C)C)C[C@@H](O)[C@H](Cc2ccccc2)NC(=O)OCc2ccncc2)cc1 [Example 22]
TD50 (nM) (CEM cells): 31,000 nM | IC50 (HIV protease; Table 21, read-out: IC50): 15 nM

COc1ccc(S(=O)(=O)N(CC(C)C)C[C@@H](O)[C@H](Cc2ccccc2)NC(=O)OCc2cccnc2)cc1 [Example 17]
TD50 (nM) (CEM cells): 59,000 nM | IC50 (HIV protease; Table 21, read-out: IC50): 4 nM

COc1ccc(S(=O)(=O)N(CC(C)C)C[C@@H](O)[C@H](Cc2ccccc2)NC(=O)OCc2ccc[n+]([O-])c2)cc1 [Example 25]
TD50 (nM) (CEM cells): 167,000 nM | IC50 (HIV protease; Table 21, read-out: IC50): 60 nM

COc1ccc(S(=O)(=O)N(CC(C)C)C[C@@H](O)[C@H](Cc2ccccc2)NC(=O)OC(C)(C)C)cc1 [Example 27]
TD50 (nM) (CEM cells): 300,000 nM | IC50 (HIV protease; Table 21, read-out: IC50): 5 nM

CC(C)CCN(C[C@@H](O)[C@H](Cc1ccccc1)NC(=O)OCc1ccccc1)S(=O)(=O)c1cccs1 [Entry 10]
IC50 (HIV protease; Table 18A, read-out: IC50): 100 nM

COc1ccc(S(=O)(=O)N(CC(C)C)C[C@@H](O)[C@H](Cc2ccccc2)NC(=O)OCc2ccc(N)nc2)cc1 [Example 38]
IC50 (HIV protease; Table 21, read-out: IC50): 4 nM

Cc1c(O)cccc1C(=O)N[C@@H](Cc1ccccc1)[C@H](O)CN(CC(C)C)S(=O)(=O)c1ccc(N)cc1 [Example 63]
IC50 (HIV protease; Table 21, read-out: IC50): 7 nM

Cc1c(N)cccc1C(=O)N[C@@H](Cc1ccccc1)[C@H](O)CN(CC(C)C)S(=O)(=O)c1ccc2c(c1)CCO2 [Example 68]
IC50 (HIV protease; Table 21, read-out: IC50): 7 nM

CC(C)CN(C[C@@H](O)[C@H](Cc1ccccc1)NC(=O)OCc1cncs1)S(=O)(=O)c1ccc(N)cc1 [Example 61]
IC50 (HIV protease; Table 21, read-out: IC50): 16 nM

C=CCOC(=O)N[C@@H](Cc1ccccc1)[C@H](O)CN(CC(C)C)S(=O)(=O)c1ccc(OC)cc1 [Table 5 Entry 33]
IC50 (HIV protease; [1]): 4.4 nM

COc1ccc(S(=O)(=O)N(CC(C)C)C[C@@H](O)[C@H](Cc2ccccc2)NC(=O)COc2ccccc2C)cc1 [Example 75]
IC50 (HIV protease; Table 21, read-out: IC50): 8 nM

Cc1ccccc1C(=O)N[C@@H](Cc1ccccc1)[C@H](O)CN(CC(C)C)S(=O)(=O)c1ccc(N)cc1 [Example 62]
IC50 (HIV protease; Table 21, read-out: IC50): 28 nM

C=CS(=O)(=O)N(CC(C)C)C[C@@H](O)[C@H](Cc1ccccc1)NC(=O)OCc1ccccc1 [Table 1a Entry 55]
IC50 (HIV protease; [1]): 100 nM

COc1ccc(S(=O)(=O)N(CC(C)C)C[C@@H](O)[C@H](Cc2ccccc2)NC(=O)c2ccccc2)cc1 [Example 28]
TD50 (nM) (CEM cells): 213,000 nM

COc1ccc(S(=O)(=O)N(CC(C)C)C[C@@H](O)[C@H](Cc2ccccc2)NC(=O)OCc2cncs2)cc1 [Example 56]
IC50 (HIV protease; Table 21, read-out: IC50): 4 nM

CC(C)CN(C[C@@H](O)[C@H](Cc1ccccc1)NC(=O)O[C@H]1CCOC1)S(=O)(=O)c1ccc(O)cc1 [Example 45]
IC50 (HIV protease; Table 21, read-out: IC50): 2 nM

Cc1cc(O)ccc1C(=O)N[C@@H](Cc1ccccc1)[C@H](O)CN(CC(C)C)S(=O)(=O)c1ccc2c(c1)OCO2 [Example 72]
IC50 (HIV protease; Table 21, read-out: IC50): 5 nM

Cc1c(N)cccc1C(=O)N[C@@H](Cc1ccccc1)[C@H](O)CN(CC(C)C)S(=O)(=O)c1ccc2c(c1)OCO2 [Example 71]
IC50 (HIV protease; Table 21, read-out: IC50): 5 nM

COc1ccc(S(=O)(=O)N(CC(C)C)C[C@@H](O)[C@H](Cc2ccccc2)NC(=O)O[C@H]2CCSC2)cc1 [Example 46]
IC50 (HIV protease; Table 21, read-out: IC50): 2 nM

CC(C)CN(C[C@@H](O)[C@H](Cc1ccccc1)NC(=O)OCc1cncs1)S(=O)(=O)c1ccc(O)cc1 [Example 57]
IC50 (HIV protease; Table 21, read-out: IC50): 4 nM

CC(C)CN(C[C@@H](O)[C@H](Cc1ccccc1)NC(=O)OCc1ccccc1)S(C)(=O)=O [Table 1a Entry 51]
IC50 (uM) or % inhib: % inhib @ 1 uM (HIV protease; Table 19B): 31% | IC50 (uM) or % inhib: % inhib @ 10 uM (HIV protease; Table 19B): 76%

CC(C)CCN(C[C@@H](O)[C@H](Cc1ccccc1)NC(=O)OCc1ccccc1)S(C)(=O)=O [Table 1a Entry 41]
IC50 (uM) or % inhib: % inhib @ 1 uM (HIV protease; Table 19B): 24% | IC50 (uM) or % inhib: % inhib @ 10 uM (HIV protease; Table 19B): 74%

O=C(N[C@@H](Cc1ccccc1)[C@H](O)CN(C1CCCCC1)S(=O)(=O)c1ccccc1)OCc1ccccc1 [Entry 5]
IC50 (HIV protease; Table 18A, read-out: IC50): 19 nM | IC50 (HIV protease; Table 21, read-out: IC50): 19 nM

CC(C)CN(CC(O)C(Cc1ccccc1)NC(=O)c1ccccc1)S(=O)(=O)c1ccccc1 (stereo not shown) [Table 5A Entry 24]
IC50 (HIV protease; [2]): 47 nM

CC(C)CN(C[C@@H](O)[C@H](Cc1ccccc1)NC(=O)OCc1ccccc1)S(=O)(=O)c1ccc2nc(N)sc2c1 [Example 77]
IC50 (HIV protease; Table 21, read-out: IC50): 2 nM

CC(C)CCN(CC(O)C(Cc1ccccc1)NC(=O)C(N)C(C)(C)C)S(=O)(=O)c1ccccc1 (stereo not shown) [Table 11 Entry 1]
IC50 (HIV protease; [1]): 130 nM

CC(C)CCN(C[C@@H](O)[C@H](Cc1ccccc1)NC(=O)[C@@H](NC(=O)OCc1ccccc1)C(C)(C)C)S(C)(=O)=O [Entry 11]
IC50 (HIV protease; Table 18A, read-out: IC50): 81 nM

CCC(C)[C@H](NC(=O)CN(C)C)C(=O)N[C@@H](Cc1ccccc1)[C@H](O)CN(CCC(C)C)S(=O)(=O)c1ccccc1 (stereo partly shown) [Entry 14]
IC50 (HIV protease; IC50 (nM), Table 21): 4 nM

CCC(C)CN(C[C@@H](O)[C@H](Cc1ccccc1)NC(=O)OCc1ccccc1)S(=O)(=O)c1ccc(OC)cc1 (stereo partly shown) [Table 1a Entry 56]
IC50 (HIV protease; [1]): 3.6 nM

CC(C)CN(C[C@@H](O)[C@H](Cc1ccccc1)NC(=O)OCc1cccnc1)S(=O)(=O)c1ccccc1 [Example 16]
TD50 (nM) (CEM cells): 62,000 nM | IC50 (HIV protease; Table 21, read-out: IC50): 9 nM

CC(C)CCN(C[C@@H](O)[C@H](Cc1ccccc1)NC(=O)c1ccccc1)S(=O)(=O)c1ccccc1 [Entry 8]
IC50 (HIV protease; IC50 (nM), Table 21): 85 nM

CC(C)CN(C[C@@H](O)[C@H](Cc1ccccc1)NC(=O)OCc1cncs1)S(=O)(=O)c1ccc2c(c1)OCO2 [Example 70]
IC50 (HIV protease; Table 21, read-out: IC50): 5 nM

COc1ccc(S(=O)(=O)N(CC(C)C)C[C@@H](O)[C@H](Cc2ccccc2)NC(=O)c2cccc(N(C)C)c2C)cc1 [Example 36]
IC50 (HIV protease; Table 21, read-out: IC50): 310 nM

COc1ccc(S(=O)(=O)N(CC(C)C)C[C@@H](O)[C@H](Cc2ccccc2)NC(=O)c2c(C)cccc2C)cc1 [Example 32]
TD50 (nM) (CEM cells): 17,000 nM | IC50 (HIV protease; IC50 (nM), Table 21): 5 nM

COc1ccc(S(=O)(=O)N(CC(C)C)C[C@@H](O)[C@H](Cc2ccccc2)NC(=O)c2ccccc2C)cc1 [Example 29]
TD50 (nM) (CEM cells): 196,000 nM

COc1ccc(S(=O)(=O)N(CC(C)C)C[C@@H](O)[C@H](Cc2ccccc2)NC(=O)OCc2cncnc2)cc1 [Example 23]
IC50 (HIV protease; Table 21, read-out: IC50): 2 nM

CCC(C)[C@H](NC(=O)CN(C)C)C(=O)N[C@@H](Cc1ccccc1)[C@H](O)CN(CC(C)C)S(=O)(=O)c1ccc(OC)cc1 (stereo partly shown) [Example 13]
IC50 (HIV protease; Table 21, read-out: IC50): 3 nM

COc1ccc(S(=O)(=O)N(CC(C)C)CC(O)C(Cc2ccccc2)NC(=O)c2cccc(C)c2C)cc1 (stereo not shown) [Table 5A Entry 16]
IC50 (HIV protease; [2]): 8 nM

COc1ccc(S(=O)(=O)N(CC(C)C)CC(O)C(Cc2ccccc2)NC(=O)c2ccccc2S(C)(=O)=O)cc1 (stereo not shown) [Table 5A Entry 17]
IC50 (uM) or % inhibition: % inhibition @ 10 μM (HIV protease; Table 20, @ 10 μM): 59% @ 10 μM

COc1ccc(S(=O)(=O)N(CC(C)C)C[C@@H](O)[C@H](Cc2ccccc2)NC(=O)COc2c(C)cccc2C)cc1 [Example 74]
IC50 (HIV protease; Table 21, read-out: IC50): 3 nM

COc1ccc(S(=O)(=O)N(CC(C)C)C[C@@H](O)[C@H](Cc2ccccc2)NC(=O)O[C@H]2CCS(=O)(=O)C2)cc1
melting point: 69 °C

COc1ccc(S(=O)(=O)N(CC(C)C)CC(O)C(Cc2ccccc2)NC(=O)c2ccccc2CS(C)(=O)=O)cc1 (stereo not shown) [Table 5A Entry 20]
IC50 (uM) or % inhibition: % inhibition @ 1 μM (HIV protease; Table 20, @ 1 μM): 85% @ 1 μM

CSC(C)(C)[C@H](NC(=O)CN(C)C)C(=O)N[C@@H](Cc1ccccc1)[C@H](O)CN(CCC(C)C)S(=O)(=O)c1ccccc1 [Table 14 Entry 3]
IC50 (HIV protease; [1]): 4.9 nM

CC(C)CN(C[C@@H](O)[C@H](Cc1ccccc1)NC(=O)OCc1cncnc1)S(=O)(=O)c1ccc(O)cc1 [Example 41]
IC50 (HIV protease; Table 21, read-out: IC50): 3 nM

COc1ccc(S(=O)(=O)N(CC(C)C)C[C@@H](O)[C@H](Cc2ccccc2)NC(=O)OCc2cc[n+]([O-])cc2)cc1 [Example 26]
IC50 (HIV protease; Table 21, read-out: IC50): 68 nM

Cc1c(O)cccc1C(=O)N[C@@H](Cc1ccccc1)[C@H](O)CN(CC(C)C)S(=O)(=O)c1ccc2c(c1)OCO2 [Example 73]
IC50 (HIV protease; Table 21, read-out: IC50): 4 nM

Cc1ccccc1C(=O)N[C@@H](Cc1ccccc1)[C@H](O)CN(CC(C)C)S(=O)(=O)c1ccc(O)cc1 [Example 37]
IC50 (HIV protease; Table 21, read-out: IC50): 7 nM

CC(C)CCN(C[C@@H](O)[C@H](Cc1ccccc1)NC(=O)[C@@H](NC(=O)CN(C)C)C(C)(C)C)S(C)(=O)=O [Entry 6]
IC50 (HIV protease; IC50 (nM), Table 21): > 100 nM

CC(C)CCN(CC(O)C(Cc1ccccc1)NC(=O)C(NC(=O)CBr)C(C)(C)C)S(=O)(=O)c1ccccc1 (stereo not shown) [Table 12 Entry 10]
IC50 (HIV protease; [1]): 3.3 nM

CC(C)CCN(C[C@@H](O)[C@H](Cc1ccccc1)NC(=O)C(NC(=O)CN(C)C)C(C)(C)C)S(C)(=O)=O (stereo partly shown) [Table 3 Entry 2]
IC50 (uM) or % inhib: % inhib @ 1 uM (HIV protease; Table 19B): 38% | IC50 (uM) or % inhib: % inhib @ 1.0 uM (HIV protease; Table 19B, @ 1.0 uM (second value of the cell)): 90%

CSCCCN(C[C@@H](O)[C@H](Cc1ccccc1)NC(=O)OCc1ccccc1)S(=O)(=O)c1ccccc1 [Entry 10]
IC50 (HIV protease; Table 21, read-out: IC50): 45 nM
